Laboratory results published in patent US20250250251A1, “PIPERIDINYLPYRIDINYLCARBONITRILE DERIVATIVES AS INHIBITORS OF GLUTAMINYL-PEPTIDE CYCLOTRANSFERASE AND GLUTAMINYL-PEPTIDE CYCLOTRANSFERASE LIKE PROTEIN” (Boehringer Ingelheim International GmbH, priority 2024, published 2025).

Key:
QPCTL = molecular target: T1, QPCTL (Homo sapiens, UniProt Q9NXS2); assay: Assay A: biochemical QPCTL activity assay (MALDI-TOF MS, CD47 peptide substrate); conditions: Table 2, compounds of the invention, read-out: Inhibition of QPCTL: IC50
T1 construct: made in house
T1 sequence (Q9NXS2 whole entry, species assumed): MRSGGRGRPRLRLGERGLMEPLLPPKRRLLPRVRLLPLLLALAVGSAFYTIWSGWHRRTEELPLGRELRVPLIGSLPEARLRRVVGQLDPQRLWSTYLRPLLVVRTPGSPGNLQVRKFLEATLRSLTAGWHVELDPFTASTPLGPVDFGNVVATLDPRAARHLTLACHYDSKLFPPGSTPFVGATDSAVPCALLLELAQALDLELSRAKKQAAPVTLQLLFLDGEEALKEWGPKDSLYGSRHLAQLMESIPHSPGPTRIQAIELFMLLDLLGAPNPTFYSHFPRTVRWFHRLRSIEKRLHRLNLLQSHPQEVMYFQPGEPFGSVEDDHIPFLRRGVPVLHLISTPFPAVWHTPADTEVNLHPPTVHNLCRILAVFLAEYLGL
Experimental: (§1) QPCT or QPCTL dependent conversion of N-terminal glutamine to pyroglutamate of CD47 was monitored via MALDI-TOF MS. Test compounds were dissolved in 100% DMSO and serially diluted into clear 1,536-well microtiter plates. Enzymatic reactions were set up in assay buffer containing 20 mM Tris pH 7.5, 0.1 mM TCEP, 0.01% BSA, and 0.001% Tween20. […] The plates were incubated for 10 min in a humidified incubator at 24° C. Subsequently, 2.5 μL of CD47 peptide substrate surrogate (^19[…]^33) was added to each well (final concentration: 10 μM for QPCTL/20 μM for QPCT). The plates were mixed for 30 sec at 1,000 rpm and subsequently incubated for 40 min in a humidified incubator at 24° C. […] The plates were sealed with an adhesive foil, mixed for 30 s at 1,000 rpm and stored at room temperature until preparation of the MALDI target plates. MALDI target plates were prepared as described previously. […] QPCT or QPCTL activity was monitored by calculating the ratio between product and internal standard signals followed by normalization to high (100% activity) and low (0% activity) controls. Determination of compound potencies was obtained by fitting the dose-response data to a four-parameter logistical equation.

QPCT = molecular target: T2, QPCT (Homo sapiens, UniProt Q16769); assay: Assay A: biochemical QPCT activity assay (MALDI-TOF MS, CD47 peptide substrate); conditions: Table 2, compounds of the invention, read-out: Inhibition of QPCT: IC50
T2 construct: purchased Origine (OriGene) TP700028
T2 sequence (Q16769 29-361): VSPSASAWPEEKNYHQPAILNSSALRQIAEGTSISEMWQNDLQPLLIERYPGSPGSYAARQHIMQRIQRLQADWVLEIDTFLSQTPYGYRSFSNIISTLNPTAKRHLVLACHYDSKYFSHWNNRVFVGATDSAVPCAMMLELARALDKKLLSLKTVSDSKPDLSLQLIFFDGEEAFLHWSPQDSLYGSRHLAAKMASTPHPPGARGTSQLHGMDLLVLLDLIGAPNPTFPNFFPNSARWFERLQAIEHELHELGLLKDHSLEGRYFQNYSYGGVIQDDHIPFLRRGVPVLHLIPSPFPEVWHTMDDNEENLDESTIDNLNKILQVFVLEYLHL
Experimental: as §1

[1] = Assay C: permeability in CACO-2 cells; format: in vitro ADME; conditions: human, pH 7.2, Table 7, compounds of the invention, CACO-2 cells; for efflux ratio: permeability B-A/permeability A-B, read-out: Efflux Ratio
Experimental: Caco-2 cells (1-2×10^5 cells/1 cm^2 area) are seeded on filter inserts (Costar transwell polycarbonate or PET filters, 0.4 μm pore size) and cultured (DMEM) for 10 to 25 days. Compounds are dissolved in appropriate solvent (like DMSO, 1-20 mM stock solutions). […] The transport solution (TL) is applied to the apical or basolateral donor side for measuring A-B or B-A permeability (3 filter replicates), respectively. Samples are collected at the start and end of experiment from the donor and at various time intervals for up to 2 hours also from the receiver side for concentration measurement by HPLC-MS/MS or scintillation counting. Sampled receiver volumes are replaced with fresh receiver solution.
Efflux ratio (ER)=permeability B−A/permeability A−B

CYP3A4 mRNA = assay: Assay D: CYP induction screening assay in primary human hepatocytes; format: in vitro ADME; conditions: Table 9, compounds of the invention, 48 h
Experimental: Cryopreserved plateable human hepatocytes (single donor. BioIVT) were thawed and plated in Collagen-I coated 96-well-plates at a cell density of 0.07 million cells per well.
After a 6 h attachment period, the seeding medium was replaced by serum-free William's medium E supplemented with Matrigel (0.25 mg/ml) and allowed to recover overnight. 24 h post-seeding, serum-free Williams E medium containing the test compound at a final concentration of […] and a final DMSO content of 0.1% and 0.1% DMSO (solvent-treated control), respectively, was added to predefined wells. Exposure solutions were renewed after 24 h.
After 48 h of treatment in total, the effect of the test compounds on CYP3A4 mRNA expression was assessed using the QuantiGene Plex Gene Expression Assay. Hepatocytes were lysed and total RNA was extracted using the QuantiGene Sample Processing Kit according to the instructions of the manufacturer.
mRNA quantification was conducted using a customized QuantiGene Plex Panel to analyse CYP3A4 and the housekeeper genes RPL32, EIF4E2 and GUSB according to the instructions of the manufacturer and measured on a Luminex™ instrument. Signal was reported as median fluorescence intensity (MFI), which is proportional to the number of target RNA molecules present in the sample.
For calculation of CYP3A4 mRNA induction, the signal for CYP3A4 was normalized against the geometric mean of the signal obtained for the housekeeper genes for hepatocytes exposed to test compounds in relation to solvent-treated samples according to the following equation: […]

murine hepatocytes = assay: Assay E: stability in murine hepatocytes; format: in vitro ADME, mouse; conditions: Table 12, compounds of the invention, 1 μM, 5% species serum
Experimental: The metabolic degradation of the test compound is assayed in a murine hepatocyte suspension.
Murine hepatocytes (typically cryopreserved) are incubated in an appropriate buffer system (e.g. Dulbecco's modified eagle medium plus 3.5 μg glucagon/500 mL, 2.5 mg insulin/500 mL and 3.75 mg/500 mL hydrocortison) containing 5% species serum.
Following a (typically) 30 min preincubation in an incubator (37° C., 10% CO2) 5 μl of test compound solution (80 μM; from 2 mM in DMSO stock solution diluted 1:25 with medium) are added into 395 μl hepatocyte suspension (cell density in the range 0.25-5 Mio cells/mL, typically 1 Mio cells/mL; final concentration of test compound 1 μM, final DMSO concentration 0.05%).
The cells are incubated for six hours (incubator, orbital shaker) and samples (25 μl) are taken at 0, 0.5, 1, 2, 4 and 6 hours. Samples are transferred into acetonitrile and pelleted by centrifugation (5 min). The supernatant is transferred to a new 96-deepwell plate, evaporated under nitrogen and resuspended.
Decline of parent compound is analyzed by HPLC-MS/MS
CLint is calculated as follows CL_[…]=Dose/AUC=(C0/CD)/(AUD+clast/k)×1000/60. C0: initial concentration in the incubation [μM], CD: cell density of vital cells [10e6 cells/mL], AUD: area under the data [μM×h], clast: concentration of last data point [μM], k: slope of the regression line for parent decline [h−1].
The calculated in vitro hepatic intrinsic clearance can be scaled up to the intrinsic in vivo hepatic Clearance and used to predict hepatic in vivo blood clearance (CL) by the use of a liver model (well stirred model).
[formula] [formula] [formula] • Hepatocellularity, mouse: 120×10e6 cells/g liver • Liver factor, mouse: 55 g/kg bodyweight • Blood flow, mouse: 90 ml/(min×kg)

[2] = tested on: SIRPα signalling induced by Raji cells; assay: Assay B: SIRPα signalling assay using Raji cells; format: cell-based; conditions: Homo sapiens, Table 4, compounds of the invention, read-out: Inhibition of SIRPα signalling induced by Raji cells: IC50
Experimental: Bioassay reagent 1 of the PathHunter Bioassay detection kit (DiscoverX 93-0001) was added to each well of the plate using a multichannel pipette followed by a 15 min incubation at room temperature. Afterwards bioassay reagent 2 was added followed by 60 min incubation at room temperature (incubation in the dark).
(§2) The analysis of the data was performed using the luminescence signal generated by beta-galactosidase in the PathHunter reporter cell line. The luminescence measurement was done using a Pherastar Multi-Mode Reader.

[3] = tested on: SIRPα signalling induced by A549 cells; assay: Assay B: SIRPα signalling assay using A549 cells; format: cell-based; conditions: Homo sapiens, Table 4, compounds of the invention, read-out: Inhibition of SIRPα signalling induced by A549 cells: IC50
Experimental: Two cell types are independently used: the Raji cell line (lymphoblast-like human cell line derived from B lymphocytes from a Burkitt's lymphoma patient in 1963) and A549 cells (adenocarcinoma human alveolar basal epithelial cells).
Test compounds were dissolved in 100% DMSO and serially diluted into a white 384-well microtiter cell culture plate (PerkinElmer #60076780 in case of Raji assay; PDL-coated plates Greiner #781945 in case of A549 assay). 5000 Raji cells (ATCC #CC86) or 5000 A549 cells (ATCC #CCL-185) in Assay Complete Cell Plating reagent 30 (DiscoverX 93-0563R30B) were added per well. The assay plate was incubated for 48 h at 37° C., 95% humidity and 5% CO2. 15000 reporter cells (Jurkat PathHunter SIRPαV1, DiscoverX #93-1135C19) were added to each well, and the plate was incubated for 5 h at 37° C., 95% humidity and 5% CO2. Bioassay reagent 1 of the PathHunter Bioassay detection kit (DiscoverX 93-0001) was added to each well of the plate using a multichannel pipette followed by a 15 min incubation at room temperature. Afterwards bioassay reagent 2 was added followed by 60 min incubation at room temperature (incubation in the dark).
as §2, with “Reader. Dose-response curves & IC50 data were calculated with 4-parameter sigmoidal dose response formula.” for “Reader.”

| SMILES | IC50 (QPCTL) [nM] | IC50 (QPCT) [nM] | Papp A→B [1] [×10⁻⁶ cm/s] | efflux ratio [1] | n-fold induction of CYP3A4 at 10 μM (CYP3A4 mRNA) [n-fold] | Mouse Hepatocyte Stability QH (murine hepatocytes) [%] | IC50 [2] [nM] | IC50 [3] [nM] |
| --- | --- | --- | --- | --- | --- | --- | --- | --- |
| Cn1cnnc1C1(F)CCN(c2c(C#N)cc(-c3ccc(F)cc3)nc2-c2ccnnc2)CC1 [Example 18] | 4 | 5 | 2.3 | 17 | 1.3 | 44 | 262 | 82 |
| Cc1ncc(-c2cc(C#N)c(N3CCC(F)(c4nncn4C)CC3)c(-c3cnc4nn(C(F)(F)F)cc4c3)n2)o1 [Example 19] | 2 | 2 | 8.1 | 7.2 | 1.1 | <12 | 139 | 25 |
| Cn1cnnc1C1(F)CCN(c2c(C#N)cc(-c3cnc(C(F)(F)F)nc3)nc2-c2cnc3nn(C(F)(F)F)cc3c2)CC1 [Example 20] | 2 | 1 | 4.3 | 12.8 | 0.5 | <12 | 618 | 110 |
| Cn1cnnc1C1(F)CCN(c2c(C#N)cc(-c3cccnc3)nc2-c2cnc3nn(C(F)(F)F)cc3c2)CC1 [Example 21] | 1 | 2 | 6.8 | 11.9 | 0.7 | 35 | 78 | 24 |
| Cc1ccc(-c2cc(C#N)c(N3CCC(F)(c4nncn4C)CC3)c(-c3cnc4nn(C(F)(F)F)cc4c3)n2)cn1 [Example 22] | 1 | 3 | 12 | 6.8 | 0.5 | 17 | 130 | 17 |
| Cc1nn(C)c(C)c1-c1cc(C#N)c(N2CCC(F)(c3nncn3C)CC2)c(-c2cnc3nn(C(F)(F)F)cc3c2)n1 [Example 23] | 1 | 2 | 4.1 | 16.3 | 1.1 | <12 | 169 | 43 |
